Laboratory results from patent US9187472B2 (AbbVie Inc., priority 2012, dated 2015).

Each compound was assayed on PC3 cells (assay: NAMPT Cell Proliferation Assay). Details: Homo sapiens, PC-3, 120 h, 5 days incubation, cell viability by Cell Titer Glo.
Assay type: cell-based
Procedure: NAMPT Cell Proliferation Assay
PC3 cells were seeded in 96-well black plates (Corning #3904) at 500 cells/well in 90 μl of RPMI media containing 10% heat-inactivated FBS and incubated overnight at 37° C. and 5% CO2 to allow cells to attach to wells. The following day, test compounds were serially diluted in neat DMSO to 1000× final concentrations prior to dilution with RPMI media to 10× and 1% DMSO. Ten μL of the 10× compounds were then transferred to wells containing cells to produce a dose response of 10-fold dilutions from 10 μM to 1×10^−5 μM. Cells were incubated for 5 days at 37° C. and 5% CO2, then cell viability was measured using Cell Titer Glo reagent (Promega #G7571). Percent inhibition values were calculated and fitted to a sigmoidal dose response curves using Assay Explorer software to determine IC50s.

Structure (SMILES)	IC50 [nM]
CC(C)n1ccc(C(=O)N2CCC(c3ccc(C(=O)NCc4ccn5ccnc5c4)cc3)CC2)n1 [Example 959, N-(imidazo[1,2-a]pyridin-7-ylmethyl)-4-(1-{[1-(propan-2-yl)-1H-pyrazol-3-yl]carbonyl}piperidin-4-yl)benzamide]	9.76
O=C(NCc1ccn2ccnc2c1)Nc1ccc(C2CCN(C(=O)c3nc4ccccc4s3)CC2)cc1 [Example 1054, 1-{4-[1-(1,3-benzothiazol-2-ylcarbonyl)piperidin-4-yl]phenyl}-3-(imidazo[1,2-a]pyridin-7-ylmethyl)urea]	26
O=C(NCc1ccn2ccnc2c1)Nc1ccc(C2CCN(C(=O)c3cc4ccccn4n3)CC2)cc1 [Example 1143, 1-(imidazo[1,2-a]pyridin-7-ylmethyl)-3-{4-[1-(pyrazolo[1,5-a]pyridin-2-ylcarbonyl)piperidin-4-yl]phenyl}urea]	17.4
CCCc1c(C(=O)N2CCC(c3ccc(NC(=O)NCc4ccn5ccnc5c4)cc3)CC2)cnn1C [Example 1141, 1-(imidazo[1,2-a]pyridin-7-ylmethyl)-3-(4-{1-[(1-methyl-5-propyl-1H-pyrazol-4-yl)carbonyl]piperidin-4-yl}phenyl)urea]	2.2
CC(C)S(=O)(=O)N1CCC(c2ccc(C(=O)NCc3ccc4ncnn4c3)s2)CC1 [Example 859, 5-[1-(propan-2-ylsulfonyl)piperidin-4-yl]-N-([1,2,4]triazolo[1,5-a]pyridin-6-ylmethyl)thiophene-2-carboxamide]	10.4
COC[C@H]1CCCN1C(=O)c1ccc(C(=O)NCc2ccn3ccnc3c2)cc1 [Example 878, N-(imidazo[1,2-a]pyridin-7-ylmethyl)-4-{[(2R)-2-(methoxymethyl)pyrrolidin-1-yl]carbonyl}benzamide]	> 10000
O=C(NCc1ccn2ccnc2c1)Nc1ccc(C2CCN(C(=O)Cc3c[nH]c4ccccc34)CC2)cc1 [Example 956, 1-(imidazo[1,2-a]pyridin-7-ylmethyl)-3-{4-[1-(1H-indol-3-ylacetyl)piperidin-4-yl]phenyl}urea]	8.83
O=C(NCc1ccn2ccnc2c1)c1ccc(C2CCN(C(=O)Cc3cccnc3Cl)CC2)cc1 [Example 972, 4-{1-[(2-chloropyridin-3-yl)acetyl]piperidin-4-yl}-N-(imidazo[1,2-a]pyridin-7-ylmethyl)benzamide]	28.9
O=C(CC1CCCC1)Nc1ccc(C(=O)NCc2cn3ccnc3cc2F)cc1 [Example 1079, 4-[(cyclopentylacetyl)amino]-N-[(7-fluoroimidazo[1,2-a]pyridin-6-yl)methyl]benzamide]	18.2
CC(C)(C)Cc1nnc(-c2ccc(NC(=O)Cc3ccn4ccnc4c3)cc2)o1 [Example 911, N-{4-[5-(2,2-dimethylpropyl)-1,3,4-oxadiazol-2-yl]phenyl}-2-(imidazo[1,2-a]pyridin-7-yl)acetamide]	42.5
COc1ncc(C)cc1C(=O)N1CCC(c2ccc(C(=O)NCc3ccn4ccnc4c3)cc2)CC1 [Example 1114, N-(imidazo[1,2-a]pyridin-7-ylmethyl)-4-{1-[(2-methoxy-5-methylpyridin-3-yl)carbonyl]piperidin-4-yl}benzamide]	21.8
CC(C)CS(=O)(=O)CC(=O)N1CCC(c2ccc(C(=O)NCc3ccn4ccnc4c3)cc2)CC1 [Example 929, N-(imidazo[1,2-a]pyridin-7-ylmethyl)-4-(1-{[(2-methylpropyl)sulfonyl]acetyl}piperidin-4-yl)benzamide]	24.7
CC(C)c1nccc(C(=O)N2CCC(c3ccc(C(=O)NCc4ccn5ccnc5c4)cc3)CC2)n1 [Example 1006, N-(imidazo[1,2-a]pyridin-7-ylmethyl)-4-(1-{[2-(propan-2-yl)pyrimidin-4-yl]carbonyl}piperidin-4-yl)benzamide]	73.7
O=C(NCc1ccn2ccnc2c1)Nc1ccc(C2CCN(C(=O)c3ncc(F)cc3F)CC2)cc1 [Example 1066, 1-(4-{1-[(3,5-difluoropyridin-2-yl)carbonyl]piperidin-4-yl}phenyl)-3-(imidazo[1,2-a]pyridin-7-ylmethyl)urea]	5.7
O=C(NCc1ccc2ncnn2c1)c1ccc(C2CCN(C(=O)c3cccc(F)c3)CC2)s1 [Example 832, 5-[1-(3-fluorobenzoyl)piperidin-4-yl]-N-([1,2,4]triazolo[1,5-a]pyridin-6-ylmethyl)thiophene-2-carboxamide]	10.1
CC1CC(C#N)(C(=O)N2CCC(c3ccc(NC(=O)NCc4ccn5ccnc5c4)cc3)CC2)C1 (stereo not shown) [Example 1127, 1-(4-{1-[(1-cyano-3-methylcyclobutyl)carbonyl]piperidin-4-yl}phenyl)-3-(imidazo[1,2-a]pyridin-7-ylmethyl)urea]	2.99
CCc1nc(C(=O)N2CCC(c3ccc(C(=O)NCc4ccn5ccnc5c4)cc3)CC2)cs1 [Example 1005, 4-{1-[(2-ethyl-1,3-thiazol-4-yl)carbonyl]piperidin-4-yl}-N-(imidazo[1,2-a]pyridin-7-ylmethyl)benzamide]	74.7

Structure (SMILES)	IC50 [nM]
CC(C)C(=O)N1CCC(c2ccc(C(=O)NCc3cn4ccnc4cn3)c(F)c2)CC1 [Example 1160, 2-fluoro-N-(imidazo[1,2-a]pyrazin-6-ylmethyl)-4-[1-(2-methylpropanoyl)piperidin-4-yl]benzamide]	16.3
CC(=O)c1ccccc1C(=O)N1CCC(c2ccc(C(=O)NCc3ccn4ccnc4c3)cc2)CC1 [Example 924, 4-[1-(2-acetylbenzoyl)piperidin-4-yl]-N-(imidazo[1,2-a]pyridin-7-ylmethyl)benzamide]	18
COc1ccccc1CC(=O)Nc1ccc(C(=O)NCc2ccn3ccnc3c2)cc1 [Example 867, N-(imidazo[1,2-a]pyridin-7-ylmethyl)-4-{[(2-methoxyphenyl)acetyl]amino}benzamide]	68.7
N#Cc1ccc(C(=O)N2CCC(c3ccc(C(=O)NCc4ccn5ccnc5c4)cc3)CC2)s1 [Example 1093, 4-{1-[(5-cyanothiophen-2-yl)carbonyl]piperidin-4-yl}-N-(imidazo[1,2-a]pyridin-7-ylmethyl)benzamide]	565
CCC(CC)C(=O)N1CCC(c2ccc(C(=O)NCc3ccn4ccnc4c3)cc2)CC1 [Example 917, 4-[1-(2-ethylbutanoyl)piperidin-4-yl]-N-(imidazo[1,2-a]pyridin-7-ylmethyl)benzamide]	6.79
O=C(NCc1ccn2ccnc2c1)Nc1ccc(C2CCN(C(=O)c3cnc4c(c3)CCCO4)CC2)cc1 [Example 1036, 1-{4-[1-(3,4-dihydro-2H-pyrano[2,3-b]pyridin-6-ylcarbonyl)piperidin-4-yl]phenyl}-3-(imidazo[1,2-a]pyridin-7-ylmethyl)urea]	16
O=C(NCc1ccn2ccnc2c1)Nc1ccc(C2CCN(C(=O)c3cccc4c3OCCO4)CC2)cc1 [Example 1026, 1-{4-[1-(2,3-dihydro-1,4-benzodioxin-5-ylcarbonyl)piperidin-4-yl]phenyl}-3-(imidazo[1,2-a]pyridin-7-ylmethyl)urea]	1.56
O=C(NCc1ccn2ccnc2c1)Nc1ccc(C2CCN(C(=O)c3ccc(C4CC4)cn3)CC2)cc1 [Example 1132, 1-(4-{1-[(5-cyclopropylpyridin-2-yl)carbonyl]piperidin-4-yl}phenyl)-3-(imidazo[1,2-a]pyridin-7-ylmethyl)urea]	8.96
O=C(NCc1ccn2ccnc2c1)Nc1ccc(C2CCN(C(=O)C3COc4ccccc4O3)CC2)cc1 (stereo not shown) [Example 1023, 1-{4-[1-(2,3-dihydro-1,4-benzodioxin-2-ylcarbonyl)piperidin-4-yl]phenyl}-3-(imidazo[1,2-a]pyridin-7-ylmethyl)urea]	6.87
O=C(NCc1ccn2ccnc2c1)c1ccc(C2CCN(C(=O)c3cccnc3Cl)CC2)cc1 [Example 913, 4-{1-[(2-chloropyridin-3-yl)carbonyl]piperidin-4-yl}-N-(imidazo[1,2-a]pyridin-7-ylmethyl)benzamide]	14.4
Cc1cc(C(=O)N2CCC(c3ccc(C(=O)NCc4ccn5ccnc5c4)cc3)CC2)cc(Cl)n1 [Example 932, 4-{1-[(2-chloro-6-methylpyridin-4-yl)carbonyl]piperidin-4-yl}-N-(imidazo[1,2-a]pyridin-7-ylmethyl)benzamide]	30.3
COc1ccsc1C(=O)N1CCC(c2ccc(NC(=O)NCc3ccn4ccnc4c3)cc2)CC1 [Example 1051, 1-(imidazo[1,2-a]pyridin-7-ylmethyl)-3-(4-{1-[(3-methoxythiophen-2-yl)carbonyl]piperidin-4-yl}phenyl)urea]	0.313
O=C(NCc1ccn2ccnc2c1)Nc1ccc(C2CCN(C(=O)C3CC=CCC3)CC2)cc1 (stereo not shown) [Example 945, 1-{4-[1-(cyclohex-3-en-1-ylcarbonyl)piperidin-4-yl]phenyl}-3-(imidazo[1,2-a]pyridin-7-ylmethyl)urea]	2.38
O=C(NCc1cn2ccnc2cn1)c1ccc(S(=O)(=O)c2ccccc2)cc1 [Example 897, N-(imidazo[1,2-a]pyrazin-6-ylmethyl)-4-(phenylsulfonyl)benzamide]	716
O=C(NCc1ccn2ccnc2c1)c1ccc(NC(=O)c2ccc(F)c(F)c2)cc1 [Example 872, 3,4-difluoro-N-{4-[(imidazo[1,2-a]pyridin-7-ylmethyl)carbamoyl]phenyl}benzamide]	> 10000
O=C(CC1CCCC1)Nc1ccc(C(=O)NCc2cn3ccnc3cn2)c(F)c1 [Example 908, 4-[(cyclopentylacetyl)amino]-2-fluoro-N-(imidazo[1,2-a]pyrazin-6-ylmethyl)benzamide]	11.2
CCC(CC)C(=O)N1CCC(c2ccc(NC(=O)NCc3ccn4ccnc4c3)cc2)CC1 [Example 942, 1-{4-[1-(2-ethylbutanoyl)piperidin-4-yl]phenyl}-3-(imidazo[1,2-a]pyridin-7-ylmethyl)urea]	1.02
